Data taken from US11891348B2, “Cycloheptylamine derivatives as anti-diabetic agents” (UNITED ARAB EMIRATES UNIVERSITY, priority 2020, dated 2024).
Entries after “also recorded” stand apart in the source; their conditions may differ. Counter-ions that a name gives are not always drawn.

How the values were obtained:
βTC6 cells = assay: Insulin secretion by βTC6 cells, high range insulin Sandwich ELISA kit; format: cell-based; details: for insulin secretion compared to the basal control: absence of glucose; for insulin secretion compared to basal insulin secretion: presence of 2.8 mM glucose, 10^−15, 10^−12, and 10^−9 M
Description: FIG. 2A is a bar graph showing the in vitro effects on insulin secretion of compound 2a at concentrations of 10^−15, 10^−12, and 10^−9 M, compared to control, in both the absence and presence of 2.8 mM glucose. Results are means of triplicates±SEM; * P<0.05, ** P<0.01, *** P<0.001, from relative basal control.
The secretion of insulin by βTC6 cells was measured using the high range insulin Sandwich ELISA kit. The 2.8 mM glucose gave a mild insulin response around 3000 pmol/l and was used in testing the effect of compounds 2a-d. […]

[1] = test system: STZ-induced diabetic rats; assay: Fasting blood glucose (FBG) in Streptozotocin (STZ)-induced diabetic rats after oral administration; format: in vivo
Description: FIG. 1A is a bar graph showing in vivo anti-hyperglycemic effect on fasting blood glucose levels over time, ranging from 0 minute to 480 minutes, and at 1440 minutes, in STZ-induced diabetic rats, comparing a dose of 1.0 μM/kg compound 2a with control. Results are means±SEM; n=6 rats; * P<0.05, ** P<0.01, vs. STZ control.
FIG. 1B is a bar graph showing in vivo anti-hyperglycemic effect on fasting blood glucose levels over time, ranging from 0 minute to 480 minutes, and at 1440 minutes, in STZ-induced diabetic rats, comparing a dose of 1.0 μM/kg compound 2b with control. Results are means±SEM; n=6 rats; * P<0.05, ** P<0.01, vs. STZ control.
FIG. 1C is a bar graph showing in vivo anti-hyperglycemic effect on fasting blood glucose levels over time, ranging from 0 minute to 480 minutes, and at 1440 minutes, in STZ-induced diabetic rats, comparing an oral dose of 1.0 μM/kg compound 2c with control. Results are means±SEM; n=6 rats; * P<0.05, ** P<0.01, vs. STZ control.
FIG. 1D is a bar graph showing in vivo anti-hyperglycemic effect on fasting blood glucose levels over time, ranging from 0 minutes to 480 minutes, and at 1440 minutes, in STZ-induced diabetic rats, comparing a dose of 1.0 μM/kg compound 2d with control. Results are means±SEM; n=6 rats; * P<0.05, ** P<0.01, vs. STZ control.
These symptoms indicated the development of diabetes characterized by chronic and persistently elevated plasma glucose levels.
Compound 2a was orally administrated to the treated groups of diabetic rats at a dose of 1.0 μM/kg. Glucose levels in their blood were followed over 8.0 hours. […] Compounds 2b-d were orally administrated to the treated groups of diabetic rats at a dose of 1.0 μM/kg. Blood glucose levels were monitored at 0, 30 minutes, 60 minutes, 2 hours, 4 hours, 6 hours, 8 hours, and then again at 24 hours.

[2] = 10^−15, 10^−12, and 10^−9 M tested

| Compound | insulin secretion compared to the basal control (βTC6 cells; [2]) | insulin secretion compared to basal insulin secretion (βTC6 cells) | melting point [°C] | other results |
| --- | --- | --- | --- | --- |
| Cl.N=C(N)/N=C(\N)NC1CCCCCC1 [compound 11, (E)-Amino[(amino(cycloheptylamino)methylene)amino]methaniminium chloride] | not to a statistically significant degree | significant stimulation | 283 |  |
| Cc1ccc(S(=O)(=O)NC(=O)NC2CCCCCC2)cc1 [compound 9f, N-(Cycloheptylcarbamoyl)-4-methylbenzenesulfonamide] | not to a statistically significant degree | significant stimulation |  |  |
| c1cc(-c2cc[n+](C3CCCCCC3)cc2)ccn1 (as salt: chloride) [compound 6, 1-cycloheptyl-[4,4′-bipyridin]-1-ium chloride] |  |  | 102 |  |
| NC1CCCCCC1 [compound 2a, Cycloheptanamine Hydrochloride] | significantly stimulated |  |  | duration of significant reduction in blood glucose levels ([1]; 1.0 μM/kg): at least 8 hours; time to significant reduction in blood glucose levels ([1]; 1.0 μM/kg): ≤ 1 h; reduction in blood glucose levels compared to control diabetic rats ([1]; oral dose of 1.0 μM/kg, followed over 8.0 hours, Hydrochloride): significant reduction; also recorded: reductions in blood glucose levels; insulin secretion compared to the basal control (βTC6 cells; concentrations of 10^−15 and 10^−12 M): significantly stimulated; insulin secretion compared to basal insulin secretion (βTC6 cells; Hydrochloride): stimulated insulin secretions significantly; stimulation of insulin production (βTC6 cells; summary statement, glucose condition not given): stimulation of insulin production |
| O=C(Nc1cc(C(F)(F)F)cc(C(F)(F)F)c1)NC1CCCCCC1 [9a, 1-[3′,5′-Bis(trifluoromethyl)phenyl]-3-cycloheptylurea] |  |  | 169 to 170 |  |
| Nc1ccc(S(=O)(=O)NC(=O)NC2CCCCCC2)cc1 [compound 9d, 4-Amino-N-(cycloheptylcarbamoyl)benzenesulfonamide] | not to a statistically significant degree | significant stimulation | 235 to 236 |  |
| O=C(NC1CCCCCC1)C(=O)NC1CCCCCC1 [compound 8, N1,N2-dicycloheptyloxalamide] |  |  | 232 |  |
| N=C(N)NC1CCCCCC1 [compound 10, 1-Cycloheptylguanidine hydrochloride] | not to a statistically significant degree | significant stimulation |  |  |
| Nc1nccc(NC(=O)NC2CCCCCC2)n1 [compound 9c, 1-(2′-Aminopyrimidin-4′-yl)-3-cycloheptylurea] | not to a statistically significant degree | significant stimulation | 139 to 141 |  |
| N=C(N)NC1CCCCCC1 (as salt: hydrochloride) [compound 10, 1-Cycloheptylguanidine hydrochloride] |  |  | 106 |  |
